Experimental data reported in ChEMBL document CHEMBL3232814, “Synthesis and anticancer structure activity relationship investigation of cationic anthraquinone analogs” (2014).

Legend:
Format in all cases: functional
HCT-116 = assay: Growth inhibition of human HCT116 cells; conditions: for CC50: read-out: LC50 (the source's name)
[1] = Growth inhibition of human HCT15 cells; conditions: for GI50: HCT-15; for CC50: HCT-15, read-out: LC50 (the source's name)
[2] = Growth inhibition of human HCC2998 cells; conditions: for GI50: HCC 2998; for CC50: HCC 2998, read-out: LC50 (the source's name)
[3] = Growth inhibition of human SF295 cells; conditions: SF-295
MDA-MB-435 = assay: Growth inhibition of human MDA-MB-435 cells; conditions: for CC50: read-out: LC50 (the source's name)
[4] = Growth inhibition of human LOXIMVI cells; conditions: LOX IMVI; for CC50: read-out: LC50 (the source's name)
[5] = Growth inhibition of human UACC257 cells; conditions: for GI50: UACC-257; for CC50: UACC-257, read-out: LC50 (the source's name)
NCI-H226 = assay: Growth inhibition of human NCI-H226 cells; conditions: for CC50: read-out: LC50 (the source's name)
[6] = Growth inhibition of human UACC62 cells; conditions: for GI50: UACC-62; for CC50: UACC-62, read-out: LC50 (the source's name)
NCI-H522 = assay: Growth inhibition of human NCI-H522 cells; conditions: for CC50: read-out: LC50 (the source's name)
[7] = Growth inhibition of human EKVX cells; conditions: for CC50: read-out: LC50 (the source's name)
U-251 = assay: Growth inhibition of human U251 cells
HT-29 = assay: Growth inhibition of human HT-29 cells
[8] = Growth inhibition of human SF539 cells; conditions: for GI50: SF-539; for CC50: SF-539, read-out: LC50 (the source's name)
SK-MEL-2 = assay: Growth inhibition of human SK-MEL-2 cells; conditions: for CC50: read-out: LC50 (the source's name)
Malme-3M = assay: Growth inhibition of human MALME-3M cells; conditions: for CC50: read-out: LC50 (the source's name)
NCI-H23 = assay: Growth inhibition of human NCI-H23 cells; conditions: for CC50: read-out: LC50 (the source's name)
M14 = assay: Growth inhibition of human M14 cells; conditions: for CC50: read-out: LC50 (the source's name)
A549 = assay: Growth inhibition of human A549 cells; conditions: for CC50: read-out: LC50 (the source's name)
[9] = Growth inhibition of human NCI60 cells assessed as cell growth; set-up: concentration or dose not given beside the values
HOP-62 = assay: Growth inhibition of human HOP62 cells; conditions: for CC50: read-out: LC50 (the source's name)
SK-MEL-5 = assay: Growth inhibition of human SK-MEL-5 cells
KM12 = assay: Growth inhibition of human KM12 cells; conditions: for CC50: read-out: LC50 (the source's name)
COLO 205 = assay: Growth inhibition of human COLO205 cells; conditions: for CC50: read-out: LC50 (the source's name)
NCI-H322M = assay: Growth inhibition of human NCI-H322M cells; conditions: for CC50: read-out: LC50 (the source's name)
SNB-75 = assay: Growth inhibition of human SNB75 cells; conditions: for CC50: read-out: LC50 (the source's name)
[10] = Growth inhibition of human HOP92 cells; conditions: for GI50: HOP-92; for CC50: HOP-92, read-out: LC50 (the source's name)
SF-268 = assay: Growth inhibition of human SF268 cells; conditions: for CC50: read-out: LC50 (the source's name)
NCI-H460 = assay: Growth inhibition of human NCI-H460 cells; conditions: for CC50: read-out: LC50 (the source's name)
SK-MEL-28 = assay: Growth inhibition of human SK-MEL-28 cells; conditions: for CC50: read-out: LC50 (the source's name)
SW-620 = assay: Growth inhibition of human SW620 cells; conditions: for CC50: read-out: LC50 (the source's name)
SNB-19 = assay: Growth inhibition of human SNB19 cells

C[n+]1nn(-c2ccc(C(F)(F)F)cc2)c2c1C(=O)c1ccccc1C2=O.O=S(=O)([O-])C(F)(F)F
GI50 (HCT-116): 3.42 µM | CC50 (HCT-116): 41.9 µM | GI50 [1]: 3.48 µM | CC50 [1]: 84 µM | GI50 [2]: 1.52 µM | CC50 [2]: 12.9 µM | GI50 [3]: 0.54 µM | LC50 (concentration killing 50% of cells) [3]: 6.74 µM | GI50 (MDA-MB-435): 1.09 µM | CC50 (MDA-MB-435): 7.28 µM | GI50 [4]: 2.68 µM | CC50 [4]: 36.8 µM | GI50 [5]: 3.24 µM | CC50 [5]: 43.1 µM | GI50 (NCI-H226): 10.1 µM | CC50 (NCI-H226): 89.4 µM | GI50 [6]: 1.67 µM | CC50 [6]: 30.6 µM | GI50 (NCI-H522): 14.3 µM | CC50 (NCI-H522): 68.2 µM | GI50 [7]: 23.4 µM | CC50 [7]: > 100 µM | GI50 (U-251): 14 µM | LC50 (U-251): 56.8 µM | GI50 (HT-29): 4.1 µM | LC50 (HT-29): > 100 µM | GI50 [8]: 4.68 µM | CC50 [8]: 46.7 µM | GI50 (SK-MEL-2): 12.5 µM | CC50 (SK-MEL-2): > 100 µM | GI50 (Malme-3M): 1.84 µM | CC50 (Malme-3M): 9.35 µM | GI50 (NCI-H23): 0.36 µM | CC50 (NCI-H23): 5.33 µM | GI50 (M14): 0.54 µM | CC50 (M14): 4.38 µM | GI50 (A549): 0.86 µM | CC50 (A549): > 100 µM | Activity [9]: 58.69% | GI50 (HOP-62): 2.12 µM | CC50 (HOP-62): 26 µM | GI50 (SK-MEL-5): 0.16 µM | LC50 (lethal concentration 50) (SK-MEL-5): 0.57 µM | GI50 (KM12): 8.17 µM | CC50 (KM12): 55.9 µM | GI50 (COLO 205): 1.32 µM | CC50 (COLO 205): 5.73 µM | GI50 (NCI-H322M): 0.83 µM | CC50 (NCI-H322M): 4.86 µM | GI50 (SNB-75): 1.07 µM | CC50 (SNB-75): 11.2 µM | GI50 [10]: > 100 µM | CC50 [10]: > 100 µM | GI50 (SF-268): 18.7 µM | CC50 (SF-268): > 100 µM | GI50 (NCI-H460): 1.4 µM | CC50 (NCI-H460): 7.77 µM | GI50 (SK-MEL-28): 12.8 µM | CC50 (SK-MEL-28): 56.5 µM | GI50 (SW-620): 14 µM | CC50 (SW-620): 64.3 µM | GI50 (SNB-19): 1.45 µM | LC50 (SNB-19): 6.54 µM

C[n+]1nn(-c2ccc(Cl)cc2)c2c1C(=O)c1ccccc1C2=O.O=S(=O)([O-])C(F)(F)F
Activity [9]: 101.7%

C[n+]1nn(-c2ccc(F)cc2)c2c1C(=O)c1ccccc1C2=O.O=S(=O)([O-])C(F)(F)F
GI50 (HCT-116): 1.5 µM | CC50 (HCT-116): 8.19 µM | GI50 [1]: 3.72 µM | CC50 [1]: 50.9 µM | GI50 [2]: 1.4 µM | CC50 [2]: 8.22 µM | GI50 [3]: 0.58 µM | LC50 (concentration killing 50% of cells) [3]: 4.94 µM | GI50 (MDA-MB-435): 0.26 µM | CC50 (MDA-MB-435): 2.21 µM | GI50 [4]: 1.35 µM | CC50 [4]: 8.17 µM | GI50 [5]: 0.6 µM | CC50 [5]: 6.93 µM | GI50 (NCI-H226): 2.26 µM | CC50 (NCI-H226): 23 µM | GI50 [6]: 1.55 µM | CC50 [6]: 7.67 µM | GI50 (NCI-H522): 12.1 µM | CC50 (NCI-H522): 53.8 µM | GI50 [7]: 3.28 µM | CC50 [7]: 62 µM | GI50 (U-251): 7.86 µM | LC50 (U-251): 45.3 µM | GI50 (HT-29): 2.51 µM | LC50 (HT-29): 48 µM | GI50 [8]: 1.83 µM | CC50 [8]: 8.4 µM | GI50 (SK-MEL-2): 2.27 µM | CC50 (SK-MEL-2): 33.7 µM | GI50 (Malme-3M): 0.35 µM | CC50 (Malme-3M): 4.75 µM | GI50 (NCI-H23): 0.82 µM | CC50 (NCI-H23): 7.25 µM | GI50 (M14): 0.34 µM | CC50 (M14): 3.89 µM | GI50 (A549): 0.67 µM | CC50 (A549): 5.46 µM | Activity [9]: 43.38% | GI50 (HOP-62): 2.4 µM | CC50 (HOP-62): 32.9 µM | GI50 (SK-MEL-5): 0.17 µM | LC50 (lethal concentration 50) (SK-MEL-5): 0.6 µM | GI50 (KM12): 2.4 µM | CC50 (KM12): 33.5 µM | GI50 (COLO 205): 0.35 µM | CC50 (COLO 205): 3.54 µM | GI50 (NCI-H322M): 0.45 µM | CC50 (NCI-H322M): 4.22 µM | GI50 (SNB-75): 1.94 µM | CC50 (SNB-75): 7.17 µM | GI50 [10]: 10.7 µM | CC50 [10]: > 100 µM | GI50 (SF-268): 3.67 µM | CC50 (SF-268): 46 µM | GI50 (NCI-H460): 0.63 µM | CC50 (NCI-H460): 9 µM | GI50 (SK-MEL-28): 4.27 µM | CC50 (SK-MEL-28): 45.9 µM | GI50 (SW-620): 6.12 µM | CC50 (SW-620): 47.5 µM | GI50 (SNB-19): 1.37 µM | LC50 (SNB-19): 5.88 µM
